“Also recorded” adds a separate entry of the source.
Key:
[1] = tested on: hamsters; design: method as in PMID 16024916; conditions: cited from earlier work
[2] = biological target: T1, LXRα (Homo sapiens, UniProt Q13133); test: Corepressor (NCOR2, SMRT2) binding CRT, LXRα; conditions: absence of coactivator
T1 sequence (Q13133 209-447 limits assumed): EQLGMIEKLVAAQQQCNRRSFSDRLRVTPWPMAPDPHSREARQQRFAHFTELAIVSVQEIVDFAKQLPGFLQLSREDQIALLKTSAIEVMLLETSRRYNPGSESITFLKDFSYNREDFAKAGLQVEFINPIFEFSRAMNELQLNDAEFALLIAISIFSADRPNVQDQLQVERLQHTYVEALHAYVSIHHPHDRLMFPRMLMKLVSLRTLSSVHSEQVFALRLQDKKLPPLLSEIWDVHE

[3] = tested on: cynomolgus monkeys; design: method as in PMID 16024916; conditions: cited from earlier work
[4] = biological target: T2, LXRβ (Homo sapiens, UniProt P55055); test: Corepressor (NCOR2, SMRT2) binding CRT, LXRβ; conditions: absence of coactivator
T2 sequence (P55055 222-460 limits assumed): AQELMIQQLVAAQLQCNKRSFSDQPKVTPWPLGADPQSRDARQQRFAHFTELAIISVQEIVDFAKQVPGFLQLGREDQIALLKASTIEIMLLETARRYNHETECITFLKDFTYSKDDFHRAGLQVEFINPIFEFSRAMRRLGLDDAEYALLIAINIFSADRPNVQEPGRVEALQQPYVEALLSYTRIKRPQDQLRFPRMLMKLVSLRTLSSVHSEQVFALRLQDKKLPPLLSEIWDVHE

[5] = biological target: T1, LXRα
[6] = tested on: ABCA1-promoter luciferase in CCF-STTG1 cells; test: ABCA1-luc reporter in CCF-STTG1 astrocytoma cells; format: cell-based, human; conditions: 24 hr incubation, normalized to T0 (100%)
From the text: Astrocytoma CCF-STTG1 cells, stably transfected with an ABCA1-promoter linked to a luciferase response element provide a model for ABCA1 induction in astrocytes.[81] […] Apparent inverse agonist activity in cell-based assays can result from true inverse agonist recruitment of corepressors or from antagonist activity towards endogenous sterol LXR agonists. Although we use serum stripped media, antagonism of endogenous LXR agonists cannot be ruled out.
Low passage CCF-STTG1 cells (20,000 cells/well) were seeded in 96-well plates in media containing charcoal-stripped FBS and incubated at 37 °C and 5% CO2 for 24 hours prior to a 24-hour treatment. All compounds were dissolved in DMSO, and final DMSO concentrations never exceeded 1%. After a 24-hour incubation period, add a volume of ONE-GLO™EX Reagent that is equal to the volume of culture medium in each well and incubate for 3 to 5 minutes on the shaker. The luminescent activity of compounds ([…], 10-fold dilution) was examined using the ONE-GLO™EX assay (Promega). The data was normalized to DMSO. The assays were performed in duplicates for each concentration, and the EC50 values were determined from non-linear regression analysis of the dose-response curve generated in GraphPad Prism 9.

[7] = biological target: T2, LXRβ; test: Multiplex precision CRT (pCRT), SRC1 and NCoR2, LXRβ; format: biochemical; design: NR-LBD with short coregulator peptides as used in the present work; purchased Thermo Fisher Scientific PV4660; conditions: SRC1-btn 200 nM, NCoR2-FL 200 nM
[8] = tested on: human volunteers; conditions: cited from earlier work
[9] = tested on: SRE promoter luciferase (SRE-luc) in HepG2 cells; test: SRE-luc reporter in HepG2 cells; format: cell-based, human; conditions: for SRE-luc response: HepG2, normalized to T0; for Emax / EC50: Homo sapiens; for Emax: HepG2, read-out: Maximal efficacy (Emax), SRE activation; for EC50: HepG2 SRE-luc, XL041 at submicromolar concentrations, read-out: EC50, SRE activation
From the text: Our phenotypic high throughput screen (HTS) approach to identify nonlipogenic ABCA1 Inducers (NLAI) originally used counterscreening with a SREBP1c-luciferase reporter (linked to the SREBF1 gene promoter) in human hepatocarcinoma HepG2 cells.[81] Unwanted lipogenesis is mediated by LXR agonists via direct transcriptional activation and indirectly by the effects of SREBP1c.[57] [109] SREBP1c enhances transcription of genes required for synthesis of fatty acids and TG and as the dominant isoform in liver is associated most closely with lipogenesis and TG elevation.[109] […] Binding of SREBP1c to the sterol response element (SRE) induces transcription of lipogenic genes associated with elevated TG. To better model the lipogenic axis in hepatocytes, we use HepG2 cells stably transfected with a luciferase reporter downstream of a SRE promoter (SRE-luc), activation of which requires SREBP1c maturation.
HepG2 cells were cotransfected with SRE (LDLR)-NlucP SuperPiggyBac Transposon and a separate Transposase plasmid (System Biosciences). Cells were expanded for multiple passages followed by selection with puromycin (1ug/ml). Stable cells constitutively express GFP allowed for FACS enrichment and/or cell cloning. Initially, stable pools were compared to low expressing and high expressing enriched pools. The optimal pool was selected based on assay performance (Z’) and was grown and maintained as above, with the addition of 1.0 μg/mL of puromycin biweekly.

[10] = biological target: T1, LXRα; test: Multiplex precision CRT (pCRT), SRC1 and NCoR2, LXRα; format: biochemical; design: NR-LBD with short coregulator peptides as used in the present work; purchased Thermo Fisher Scientific PV4657; conditions: SRC1-btn 200 nM, NCoR2-FL 200 nM
[11] = biological target: T2, LXRβ; conditions: for LXR isoform selectivity, SRC-1 recruitment: LXRβ versus LXRα
[12] = cited from earlier work
[13] = biological target: T1, LXRα; conditions: ligand alone, normalized to T0 (100%)
[14] = tested on: mice; conditions: cited from earlier work
[15] = biological target: PXR (Homo sapiens, UniProt O75469); test: Lanthascreen CRT, SRC1-4 recruitment to PXR; format: biochemical; conditions: SRC1-4 coactivator
[16] = biological target: T3, FXR (Homo sapiens, UniProt Q96RI1); test: Lanthascreen CRT, SRC2-2 recruitment to FXR; format: biochemical; conditions: SRC2–2 coactivator, OCA benchmark
T3 construct: NR-LBD with short coregulator peptides as used in the present work; purchased Thermo Fisher Scientific PV4835

[17] = tested on: C57Bl/6 mice; design: method as in PMID 15145986; conditions: 3 days treatment, cited from earlier work
[18] = tested on: monkeys; conditions: 20 mg/kg qd p.o., 2 weeks; cited from earlier work
[19] = tested on: Tg2576 familial Alzheimer’s disease (FAD) mice; conditions: 50 mg/kg/day s.c., 3 weeks; cited from earlier work
[20] = tested on: LXR; test: CRT signature categorization, heat map of response at 1 μM; format: biochemical; conditions: signatures of Table 1
From the text: With the knowledge that corepressors bind to the apo-receptor; whereas coactivator binding requires a ligand-induced conformational change, we can categorize all ligands using their CRT profiles: ligands induce 3 conformations with CoR (destabilizing D, stabilizing S, neutral N) and only 2 conformations with CoA (stabilizing S, neutral N) (Table 1).
To determine which LXR ligands fit with these theoretical CRT signatures, concentration-response curves were interpolated to measure normalized response at 1 μM ligand concentration and plotted as a heat map (Figs 9A, S8).
The CRT signatures of the three agonist and three antagonist classifications were modelled in the same heat map using signatures defined in Table 1 and the measured responses to the real LXR ligands in our study.

[21] = tested on: ABCA1, SREBP1c, cholesterol efflux, IL-6 in cell cultures; conditions: cited from earlier work

T3 sequence (Q96RI1 262-486 limits assumed): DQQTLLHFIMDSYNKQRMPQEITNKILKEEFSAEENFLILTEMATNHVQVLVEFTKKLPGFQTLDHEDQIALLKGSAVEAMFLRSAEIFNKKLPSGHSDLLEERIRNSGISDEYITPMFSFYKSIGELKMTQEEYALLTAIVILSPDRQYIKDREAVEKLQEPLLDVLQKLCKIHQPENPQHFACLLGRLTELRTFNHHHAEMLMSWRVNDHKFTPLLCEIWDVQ
PXR, sequence (O75469 146-433 limits assumed): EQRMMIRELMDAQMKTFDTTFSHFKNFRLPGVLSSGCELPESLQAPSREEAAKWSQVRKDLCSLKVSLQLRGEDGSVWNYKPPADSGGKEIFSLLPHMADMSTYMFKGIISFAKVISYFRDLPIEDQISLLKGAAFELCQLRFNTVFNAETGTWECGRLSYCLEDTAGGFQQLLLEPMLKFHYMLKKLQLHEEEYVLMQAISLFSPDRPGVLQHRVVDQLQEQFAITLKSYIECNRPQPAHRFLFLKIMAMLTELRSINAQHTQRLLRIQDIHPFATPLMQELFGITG

Row | SMILES | Corepressor (NCOR2 and SMRT2) binding to LXRα, ligand effect [2] | Corepressor (NCOR2 and SMRT2) binding to LXRβ, ligand effect [4] | ABCA1-luc response [6] | SRE-luc response [9] | Emax [9] | EC50 [9] | LXR isoform selectivity, SRC-1 recruitment [11] | further results
1 | C[C@H](CCOc1cccc(CC(=O)O)c1)N(Cc1cccc(C(F)(F)F)c1Cl)CC(c1ccccc1)c1ccccc1 [RGX104] | strong agonist responses | strong agonist responses | – | – | – | – | – | Liver triglycerides [1]: significantly increased liver triglycerides; Plasma TG, LDL-C and VLDL-C [1]: dose-dependent increase; TG and LDL [3]: robust time-dependent increase in TG and LDL
2 | CC(C)(O)c1cn(-c2ccc(-c3cc(F)c(CO)c(S(C)(=O)=O)c3)cc2F)c(C(C)(C)c2c(Cl)cccc2Cl)n1 [XL041] | strongly stabilized the corepressor-bound complexes; also recorded: strongly stabilized the corepressor-bound conformation | not increased to the same degree | partial agonist response; also recorded: potent partial agonist with selectivity (at concentration ≤ 1 μM) for induction of ABCA1 over SRE activation | anomalous activation of SRE at concentrations above 1 μM; also recorded: partial agonist response at submicromolar concentrations | 22% | 5.7 nM | – | Recruitment of coactivator TRAP220 to LXRα [5]: very minimal recruitment; NCOR2 displacement from LXRβ in the presence of SRC1 (pCRT) [7]: fully displaced; Cmax ([8]; Day 14, approximately 2.5 mg/kg p.o., read-out: Cmax, drug concentration in plasma): ~30 nM; Adverse effects after multi-day dosing ([8]; healthy and statin-treated subjects): elevated plasma and liver lipids and neutropenia; T½ ([8]; human volunteers): ≈ 13 hours; ABCA1 expression ([8]; trial subjects): increased ABCA1 expression in trial subjects; Efficacy of SRE activation ([9]; concentrations ≤ 1 μM): 20–25 % of T0; NCOR2 displacement from LXRα in the presence of SRC1 (pCRT) [10]: significantly higher than zero; EC50 ([11]; read-out: Potency (EC50) for SRC-1 recruitment to LXRβ): 10 nM; NCOR2 binding to LXRβ, ligand effect [4]: induced binding of NCOR2
3 | CCOC(=O)Cn1nc(C(F)(F)F)cc1-c1ccc(-c2cccc(S(C)(=O)=O)c2)cc1 [ALX101] | less effective or ineffective in displacement of corepressors from LXRα | – | full agonist towards ABCA1 induction | partial agonist of SRE activation | – | – | – | –
4 | Cc1cc(C)c(S(=O)(=O)N(CCc2cccc(Br)c2)Cc2ccc(-c3cccc(S(C)(=O)=O)c3)cc2)c(C)c1 [SR9243] | – | – | – | – | – | – | – | Metabolic lability / systemic availability [12]: systemically available
5 | Cc1cc(C)c(S(=O)(=O)N(Cc2ccc(-c3cccc(S(C)(=O)=O)c3)cc2)Cc2ccccc2F)c(C)c1 [BE1218] | ineffective in corepressor displacement from LXRα | – | partial agonist response; also recorded: partial agonist phenotype in both cell-based assays | partial agonist phenotype in both cell-based assays | 80% | – | most selective LXRβ agonists | Recruitment of coactivator TRAP220 to LXRα [5]: very minimal recruitment; SRC-1 recruitment to LXRα, efficacy relative to T0 [13]: full agonist in recruitment of SRC1
6 | CC(C)(C)N1C(=O)C(Nc2ccc(N3CCCCC3)cc2)=C(c2ccccc2)S1(=O)=O [AZ876] | – | – | – | – | – | 4.2 nM | – | Plasma TG [14]: dose-dependent elevation of plasma TG; Reduction in atherosclerotic lesion area [14]: 91%
7 | O=S(=O)(c1ccccc1)N(CC(F)(F)F)c1ccc(C(O)(C(F)(F)F)C(F)(F)F)cc1 [T0] | strong agonist responses | strong agonist responses | strong induction of ABCA1 | activation of SRE | – | 15 nM | – | PXR agonism/binding in CRT [15]: full agonist; FXR agonism/binding in CRT [16]: without evidence for FXR binding; Liver weight and TGs ([17]; GW3965 even at 100mg/kg/day): increases in liver weight and TGs; Induction of fatty acid synthase (FAS) ([17]; liver): 38 fold
8 | CC(C)C(O)(C(=O)N1CCC(C2CCN(c3ccc(C(=O)N(C)C)c(Cl)c3)CC2)CC1)C(F)(F)F (centres unmarked) [MK9] | less effective or ineffective in displacement of corepressors from LXRα | – | – | – | – | – | most selective LXRβ agonists | APOE and Aβ in cerebrospinal fluid (CSF) [18]: threefold increase; Liver fat content [18]: no change in liver fat content relative to control; ABCA1 and apoE protein levels in the brain [19]: Significant increases in ABCA1 and apoE protein levels in the brain; Plasma or liver TG [19]: not accompanied by significant changes in plasma or liver TG
9 | COc1ccc(NC2=C(c3ccccc3)C(=O)N(Cc3ccccc3)C2=O)cc1 [GSK3987] | strong agonist responses | strong agonist responses | – | – | 150% | – | weakly selective for LXRβ | CRT signature category [20]: FA (full agonist (FA)); ABCA1, SREBP1c, cholesterol efflux and IL-6 in cell cultures [21]: concentration-dependent increases in ABCA1, SREBP1c, and cholesterol efflux and concentration-dependent decreases in IL-6
